We go through 1 molecule from BindingDB's records for patent USRE47740 (Syntrix Biosystems Inc., 2019).

This test deals with T1, C-X-C chemokine receptor type 2 (Homo sapiens, UniProt P25025).
T1 sequence (P25025 whole entry): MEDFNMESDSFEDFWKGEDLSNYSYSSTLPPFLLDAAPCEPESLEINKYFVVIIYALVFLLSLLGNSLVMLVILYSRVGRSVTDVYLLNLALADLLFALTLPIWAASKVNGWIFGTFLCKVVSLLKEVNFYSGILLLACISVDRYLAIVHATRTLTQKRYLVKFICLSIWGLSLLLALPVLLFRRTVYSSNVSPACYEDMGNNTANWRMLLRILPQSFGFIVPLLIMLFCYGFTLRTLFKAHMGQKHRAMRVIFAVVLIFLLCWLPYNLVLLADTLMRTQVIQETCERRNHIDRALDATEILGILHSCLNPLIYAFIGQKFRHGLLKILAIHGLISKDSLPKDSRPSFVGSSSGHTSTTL
The test is described as follows: In Vitro Inhibition of Intracellular Calcium Release. The method, then:
Briefly, human neutrophils were suspended in HBSS− (without Ca2+ and Mg2+) containing 10 mM HEPES and FLIPR Calcium 3 dye (3.1×10^7 cells in total volume 1.7 mL). Cells were aliquoted (200 μL of the cell suspension per tube, 8 tubes total) and 2 μL of compound 9 (with appropriate dilutions) were added to each of 6 tubes. The tested concentrations of compound 9 were 156 nM, 312 nM, 625 nM, 1250 nM, 2500 nM and 5000 nM. As controls, 2 μL of DMSO (1% final concentration) were added to 2 other tubes. Cells were incubated for 30 min at 37° C. […] The cell suspension was aliquoted into a 96-well Reading Plate (Corning) in a volume of 90 μL (10^5 cells/well). […] After 15 sec of reading the basal level of fluorescence by FlexStation II, 10 μL of GROα or HBSS− were automatically transferred from the Compound Plate into the Reading Plate (final concentration of GROα was 25 nM). Changes in fluorescence were monitored (λex=485 nm, λem=525 nm) every 5 s for 240 to 500 s at room temperature.The maximum change in fluorescence, expressed in arbitrary units over baseline (Max-Min), was used to determine the GROα response. The effect of each compound on the GROα response was normalized and expressed as a percent of the DMSO control, which was designated as 100% response. […]
A general note: Calcium assays in cells follow changes in intracellular calcium, usually with a dye or a luminescent sensor.

The term IC50 denotes the point on the concentration scale where inhibition reaches its midpoint.

With `CC1(C)OB(c2ccccc2CNc2ccc(C(=O)Nc3ccc(F)cc3)cn2)OC1(C)C` [USRE47740, Compound 7], the IC50 worked out at 1500 nM.
